US20160008471A1, “TRANSDERMAL FORMULATIONS” (priority 2013, published 2016)
Structures can show the parent of a compound that is named as a salt. Where two headings read alike, the source gives them in different places.

Experiments:
[1] = at RT; cited from earlier work
[2] = cited from earlier work; for pKa (acidic): first pKa (acidic) column; for Solubility (Aq): in words
[3] = male, bovine, pH 7.4
[4] = rabbit
[5] = horse
[6] = Moxidectin skin deposition study; format: in vitro ADME, bovine; settings: 72 hours
Description: The amount of moxidectin accumulating in the bovine skin was determined using whole skin thickness (approx. […]) and split skin thickness (approx. […]) after 72 hours. The skin tissue was physically broken down using a Gentle MACS dissociator (Miltenyi Biotec GmbH, Germany) with 5 mL of methanol added into each sample. The dissociator setting was RNA-02.01 with M-type tubes for 90 seconds. Centrifuged samples had the supernatant collected and diluted 2 times with ACN before being analysed by the HPLC method.

[7] = Stability of test composition with surfactants (phase separation, crystals); format: physicochemical; settings: surfactant added to test composition (Table 5); room temperature (24±1° C.)
Description: The purpose of this study was to examine the stability of the formula which may comprise surface active agents such as surfactants. […] Three temperatures (RT, 4.5° C. and −20° C.) were used to monitor for phase separation and/or drug crystal formation every one or two days from 6 days.

[8] = Solubility of actives in individual solvents
Description: The purpose of these studies was to identify solvents and co-solvents to optimise solubility of actives and the physical/chemical stability of product.

CCCCCCCC/C=C\CCCCCCCCOCCOCCO [Brij 93, polyoxyethylene (2) oleyl ether]
HLB [1]: 4.5 ± 0.4

C[C@]12CCC(=O)C=C1CC[C@@H]1[C@@H]2[C@@H](O)C[C@@]2(C)[C@H]1CC[C@]2(O)C(=O)CO [Hydrocortisone, Hydrocortisone (base)]
pKa (basic) [2]: −2.8 | pKa (acidic) [2]: 12.6

c1ccc([C@H]2CN3CCSC3=N2)cc1 [Lev. Base, levamisole base]
logP [2]: 1.8 | pKa (acidic) [2]: 8 | Solubility (Aq) [2]: Insoluble | pKa ([2]; stated for the basic drug LEV): 8 | flux rate of levamisole ([3]; 72 h): 949.6±80.8 μg/cm^2/hr

CCN(CC)CCNC(=O)c1cc(Cl)c(N)cc1OC [Metoclopramide, Metacloprimide HCl]
Flux [4]: 38.6±9.2 μg/cm^2/hr | lag T [4]: 4.84 h | Mean (μg/cm2) permeated ([4]; 0 h): 0 μg/cm2 | Mean (μg/cm2) permeated ([4]; 2 h): 0 μg/cm2 | Mean (μg/cm2) permeated ([4]; 4 h): 0 μg/cm2 | Mean (μg/cm2) permeated ([4]; 6 h): 0 μg/cm2 | Mean (μg/cm2) permeated ([4]; 8 h): 0 μg/cm2 | Mean (μg/cm2) permeated ([4]; 10 h): 32.3 μg/cm2 | Mean (μg/cm2) permeated ([4]; 20 h): 685 μg/cm2 | Mean (μg/cm2) permeated ([4]; 24 h): 772 μg/cm2 | Mean (μg/cm2) permeated ([4]; 26 h): 831 μg/cm2 | Mean (μg/cm2) permeated ([4]; 28 h): 925 μg/cm2 | Mean (μg/cm2) permeated ([4]; 44 h): 1537 μg/cm2 | Mean (μg/cm2) permeated ([4]; 46 h): 1612 μg/cm2 | Mean (μg/cm2) permeated ([4]; 48 h): 1567 μg/cm2 | Mean (μg/cm2) permeated ([4]; 50 h): 1782 μg/cm2 | Mean (μg/cm2) permeated ([4]; 52 h): 1968 μg/cm2 | Mean (μg/cm2) permeated ([4]; 68 h): 2391 μg/cm2 | Mean (μg/cm2) permeated ([4]; 70 h): 2387 μg/cm2 | APC ([4]; 72 h): 45.7 cm/s × 10^−8 | Extent 72 h ([4]; 72 h): 2515 μg/cm^2 | Flux ([4]; 72 h): 38.6 μg/cm^2/hr | Mean (μg/cm2) permeated ([4]; 72 h): 2515 μg/cm2 | lag T [5]: 3.11 h | Mean (μg/cm2) permeated ([5]; 0 h): 0 μg/cm2 | Mean (μg/cm2) permeated ([5]; 2 h): 0 μg/cm2 | Mean (μg/cm2) permeated ([5]; 4 h): 0 μg/cm2 | Mean (μg/cm2) permeated ([5]; 6 h): 0 μg/cm2 | Mean (μg/cm2) permeated ([5]; 8 h): 68.1 μg/cm2 | Mean (μg/cm2) permeated ([5]; 10 h): 679 μg/cm2 | Mean (μg/cm2) permeated ([5]; 20 h): 1372 μg/cm2 | Flux ([5]; 24 h): 67.0±24.6 μg/cm^2/hr | Mean (μg/cm2) permeated ([5]; 24 h): 1533 μg/cm2 | Mean (μg/cm2) permeated ([5]; 26 h): 1477 μg/cm2 | Mean (μg/cm2) permeated ([5]; 28 h): 1640 μg/cm2 | Mean (μg/cm2) permeated ([5]; 44 h): 2604 μg/cm2 | Mean (μg/cm2) permeated ([5]; 46 h): 2784 μg/cm2 | Mean (μg/cm2) permeated ([5]; 48 h): 2910 μg/cm2 | Mean (μg/cm2) permeated ([5]; 50 h): 2930 μg/cm2 | Mean (μg/cm2) permeated ([5]; 52 h): 3078 μg/cm2 | Mean (μg/cm2) permeated ([5]; 68 h): 3350 μg/cm2 | Mean (μg/cm2) permeated ([5]; 70 h): 3440 μg/cm2 | APC ([5]; 72 h): 62.7 cm/s × 10^−8 | Extent 72 h ([5]; 72 h): 3454 μg/cm^2 | Flux ([5]; 72 h): 67.0 μg/cm^2/hr | Mean (μg/cm2) permeated ([5]; 72 h): 3454 μg/cm2 | Mean (μg/cm2) permeated ([3]; 0 h): 0 μg/cm2 | Mean (μg/cm2) permeated ([3]; 2 h): 16.2 μg/cm2 | Mean (μg/cm2) permeated ([3]; 4 h): 251 μg/cm2 | Mean (μg/cm2) permeated ([3]; 6 h): 456 μg/cm2 | Mean (μg/cm2) permeated ([3]; 8 h): 960 μg/cm2 | Mean (μg/cm2) permeated ([3]; 20 h): 2188 μg/cm2 | Mean (μg/cm2) permeated ([3]; 24 h): 2252 μg/cm2 | Mean (μg/cm2) permeated ([3]; 26 h): 2718 μg/cm2 | Mean (μg/cm2) permeated ([3]; 44 h): 4779 μg/cm2 | Mean (μg/cm2) permeated ([3]; 48 h): 5169 μg/cm2 | Mean (μg/cm2) permeated ([3]; 52 h): 5394 μg/cm2 | Flux ([3]; 58 h): 109.4±11.8 μg/cm^2/hr | Mean (μg/cm2) permeated ([3]; 68 h): 5336 μg/cm2 | Mean (μg/cm2) permeated ([3]; 70 h): 5613 μg/cm2 | APC ([3]; 72 h): 97.1 cm/s × 10^−8 | Extent 72 h ([3]; 72 h): 5346 μg/cm^2 | Flux ([3]; 72 h): 109 μg/cm^2/hr | Mean (μg/cm2) permeated ([3]; 72 h): 5346 μg/cm2 | lag T [3]: 1.07 h

CO/N=C1\C[C@]2(C[C@@H]3C[C@@H](C/C=C(\C)C[C@@H](C)/C=C/C=C4\CO[C@@H]5[C@H](O)C(C)=C[C@@H](C(=O)O3)[C@]45O)O2)O[C@H](/C(C)=C/C(C)C)[C@H]1C [Moxidectin, moxidectin]
proportion of the drug in Donor ([6]; 500 μm skin): 51% | proportion of the drug in Receptor ([6]; 500 μm skin): 31% | proportion of the drug in Skin ([6]; 500 μm skin): 18% | proportion of the drug in Donor ([6]; Whole skin): 65% | proportion of the drug in Receptor ([6]; Whole skin): 3% | proportion of the drug in Skin ([6]; Whole skin): 32% | Solubility (Aq) [2]: Insoluble | flux rate of moxidectin ([3]; 72 h): 475±185.2 ng/cm^2/hr

CCCCCCCC/C=C\CCCCCCCC(=O)OCCOCC(OCCO)C1OCC(OCCO)C1OCCO (stereo not shown) [Tween 80]
Stability of test composition, RT [7]: S

Span 60
HLB [1]: 4.7

Span 80
HLB [1]: 4.3

Tocopherol
HLB [1]: 6.0

abamectin
logP [2]: 4.4 | Solubility (Aq) [2]: Insoluble | Maximum Solubility % w/w ([8]; in AGNIQUE AMD 10): At least 1 % w/w | Maximum Solubility % w/w ([8]; in AGNIQUE AMD 810): At least 1 % w/w | Maximum Solubility % w/w ([8]; in Cremophor): At least 1 % w/w | Maximum Solubility % w/w ([8]; in DMSO): At least 1 % w/w | Maximum Solubility % w/w ([8]; in Dipropylenglycol dimethylether): At least 1 % w/w | Maximum Solubility % w/w ([8]; in Ecoteric T80): At least 1 % w/w | Maximum Solubility % w/w ([8]; in Glycerol Formal): 19 % w/w | Maximum Solubility % w/w ([8]; in Isopropyl Mirystate): At least 1 % w/w | Maximum Solubility % w/w ([8]; in Isopropyleneglycol): 7 % w/w | Maximum Solubility % w/w ([8]; in Isosorbide): At least 1 % w/w | Maximum Solubility % w/w ([8]; in PEG400): At least 1 % w/w | Maximum Solubility % w/w ([8]; in Polysorbate 20): At least 1 % w/w | Maximum Solubility % w/w ([8]; in Span 80): At least 1 % w/w | Maximum Solubility % w/w ([8]; in Tetraglycol): 8 % w/w | Maximum Solubility % w/w ([8]; in Triacetin): 3 % w/w | Maximum Solubility % w/w ([8]; in Tripropylene glycol methylether (TPGME)): 8 % w/w
